Test results from patent publication US20080003226A1, “Method to Reduce Hepatoxicity of Fas-Mediated Apoptosis-Inducing Agents” (APOXIS SA, priority 2004, published 2008).

Test system: mesothelioma and ovarian cancer cell lines
Test: Cytotoxicity of MegaFasL as single agent and in combination with cisplatin in vitro
Format: cell-based
Details: compound alone
Experimental: Use of the Fas-mediated apoptosis inducing agents defined above and more particularly hexamers of the soluble fraction of FasL as defined above as an adjuvant with existing chemotherapies is another embodiment of the present invention. […] Actually, the antitumor effectiveness of MegaFasL as single agent and in combination with cisplatin was evaluated first on mesothelioma and ovarian cancer cell lines in vitro.

Question: Which cell death does the source give for `N.N.[Cl][Pt][Cl]` [cisplatin] here?
Answer: The cell death was “only marginal cell death”.
